Reference: ChEMBL document CHEMBL1141942, “Novel 7-methoxy-6-oxazol-5-yl-2,3-dihydro-1H-quinazolin-4-ones as IMPDH inhibitors” (Bioorg Med Chem Lett, 2005)
Converted amounts (≈) assume the structure as drawn.

What was measured:
PBMC = assay: Antiproliferative activity in PMBC; format: functional, cell-based; conditions: Homo sapiens
[1] = Solubility at pH 6.5; format: physicochemical; conditions: buffer
[2] = target: T1, Inosine-5'-monophosphate dehydrogenase 2 (Homo sapiens, UniProt P12268); assay: Inhibitory activity against IMPDH II
[3] = Intrinsic clearance in human liver microsomes; format: ADME, Microsome
[4] = target: T1, Inosine-5'-monophosphate dehydrogenase 2; conditions: 10 uM
Description: Inhibitory activity against IMPDH II at 10 uM

Structure (SMILES)	solubility [1] [µg/mL]	IC50 [2] [nM]	microsomal CLint [3] [µL/min/mg]	inhibition [4] [%]	IC50 (PBMC) [nM]
COc1cc2[nH]c(=O)n(C)c(=O)c2cc1-c1cnco1	3 (≈ 11 µM)				4000
COc1cc2c(cc1-c1cnco1)C(=O)N(C)C(C)(C)N2	77 (≈ 268 µM)	192			21000
COc1cc2c(cc1-c1cnco1)C(=O)N(C)C1(Cc3ccsc3C1)N2 (stereo unspecified)		96			1900
COc1cc2c(cc1-c1cnco1)C(=O)N(C)C1(CCCC1)N2		328			8500
COc1cc2c(cc1-c1cnco1)C(=O)N(C)C(C)(/C=C/c1ccccc1)N2 (stereo unspecified)		49			3000
COC(=O)[C@H]1C[C@]2(CN1C(=O)OC(C)(C)C)Nc1cc(OC)c(-c3cnco3)cc1C(=O)N2C		35	18		1500
COC(=O)[C@@H]1C[C@@]2(CN1C(=O)OC(C)(C)C)Nc1cc(OC)c(-c3cnco3)cc1C(=O)N2C		948			
COc1cc2c(cc1-c1cnco1)C(=O)N(C)C1(CCN(C(=O)Nc3ccccc3)C1)N2 (stereo unspecified)		393	19		16000
COc1cc2c(cc1-c1cnco1)C(=O)N(C)C1(CCN(C(=O)N(C)c3ccccc3)C1)N2 (stereo unspecified)		64	144		860
COc1cc2c(cc1-c1cnco1)C(=O)N(C)C1(CCN(C(=O)N(C)c3ccc(F)cc3F)C1)N2 (stereo unspecified)		51	97		1200
COC(=O)[C@H]1C[C@@]2(CN1C(=O)OC(C)(C)C)Nc1cc(OC)c(-c3cnco3)cc1C(=O)N2C				26	
COc1cc2c(cc1-c1cnco1)C(=O)N(C)C1(CCOCC1)N2		526			11600
COc1cc2c(cc1-c1cnco1)C(=O)N(CCc1ccncc1)C(C)(C)N2		300			37000
COc1cc2c(cc1-c1cnco1)C(=O)N(C)C1(CCN(C(=O)N3CCCCC3)C1)N2 (stereo unspecified)		68	152		1800
COC(=O)[C@@H]1C[C@]2(CN1C(=O)OC(C)(C)C)Nc1cc(OC)c(-c3cnco3)cc1C(=O)N2C		369			

Second part, led by results:

solubility [1] [µg/mL]	IC50 [2] [nM]	microsomal CLint [3] [µL/min/mg]	inhibition [4] [%]	Structure (SMILES)	IC50 (PBMC) [nM]
813 (≈ 1970 µM)	45	92		CCN(CC)C(=O)N1CCC2(C1)Nc1cc(OC)c(-c3cnco3)cc1C(=O)N2C (stereo unspecified)	540
	94	46		COc1cc2c(cc1-c1cnco1)C(=O)N(C)C1(CCN(C(=O)C(C)(C)C)C1)N2 (stereo unspecified)	540
	71	612		COc1cc2c(cc1-c1cnco1)C(=O)N(C)C1(CCN(C(=O)N(C(C)C)C(C)C)C1)N2 (stereo unspecified)	70
	119	11		CCNC(=O)N1CCC2(C1)Nc1cc(OC)c(-c3cnco3)cc1C(=O)N2C (stereo unspecified)	7200
	80	24		CCOC(=O)N1CCC2(C1)Nc1cc(OC)c(-c3cnco3)cc1C(=O)N2C (stereo unspecified)	1200
101 (≈ 244 µM)	104	42		COc1cc2c(cc1-c1cnco1)C(=O)N(C)C1(CCN(C(=O)OC(C)(C)C)C1)N2 (stereo unspecified)	970
	79	38		COc1cc2c(cc1-c1cnco1)C(=O)N(C)C1(CCN(C(=O)N(C)OC)C1)N2 (stereo unspecified)	1900
